Test results: ChEMBL document CHEMBL1133195, “Structure-activity relationships study at the 3'-N position of paclitaxel. Part 2: synthesis and biological evaluation of 3'-N-thiourea- and 3'-N-thiocarbamate-bearing paclitaxel analogues” (Bioorg Med Chem Lett, 2000)

Legend:
[1] = Cytotoxicity ratio was determined by IC50 to that of IC50 of paclitaxel; assay type: functional
HCT-116 = assay: In vitro cytotoxicity against human colon cancer cell lines (HCT116); assay type: functional, cell-based
[2] = Ratio relative to paclitaxel (EC0.01) was evaluated in a tubulin polymerization assay; assay type: functional
[3] = Ratio fo the (IC50-R) compound relative to (IC50-S) paclitaxel sensitive HCT116 human colon cancer cell line; assay type: functional, HCT-116
Mus musculus [4] = assay: In vivo anticancer activity against murine M 109 lung carcinoma after intraperitoneal administration at a 1.25 mg/kg/inj concentration; assay type: functional
Mus musculus [5] = assay: In vivo anticancer activity against murine M 109 lung carcinoma after intraperitoneal administration at a 40 mg/kg/inj concentration; assay type: functional
Mus musculus [6] = assay: In vivo anticancer activity against murine M 109 lung carcinoma after intraperitoneal administration at a 50 mg/kg/inj concentration; assay type: functional
Mus musculus [7] = assay: In vivo anticancer activity against murine M 109 lung carcinoma after intraperitoneal administration at a 32 mg/kg/inj concentration; assay type: functional
Mus musculus [8] = assay: In vivo anticancer activity against murine M 109 lung carcinoma after intraperitoneal administration at a 60 mg/kg/inj concentration; Range 145-218; assay type: functional

SMILES	Ratio [1]	IC50 (HCT-116) [nM]	Ratio [2]	Ratio [3]	T/C (Mus musculus [4])	T/C (Mus musculus [5])	T/C (Mus musculus [6])	T/C (Mus musculus [7])	T/C (Mus musculus [8])
CCCC/N=C(\S)N[C@@H](c1ccccc1)[C@@H](O)C(=O)O[C@H]1CC2(O)[C@@H](OC(=O)c3ccccc3)[C@H]3[C@](C)(C(=O)[C@H](OC(C)=O)C(=C1C)C2(C)C)[C@@H](O)CC1OC[C@]13OC(C)=O (stereo partly specified)	21.8	50.2	18	64					
CCCCSC(=O)N[C@@H](c1ccccc1)[C@@H](O)C(=O)O[C@H]1CC2(O)[C@@H](OC(=O)c3ccccc3)[C@H]3[C@](C)(C(=O)[C@H](OC(C)=O)C(=C1C)C2(C)C)[C@@H](O)CC1OC[C@]13OC(C)=O (stereo partly specified)	0.88	5.8	0.6	29					
CC(=O)O[C@H]1C(=O)[C@]2(C)[C@@H](O)CC3OC[C@@]3(OC(C)=O)[C@H]2[C@H](OC(=O)c2ccccc2)C2(O)C[C@H](OC(=O)[C@H](O)[C@@H](NC(=O)SC(C)(C)C)c3ccco3)C(C)=C1C2(C)C (stereo partly specified)	0.3	0.9	0.1	2.2	134				
CC(=O)O[C@@]12COC1C[C@H](O)[C@@]1(C)C(=O)[C@H](O)C3=C(C)[C@@H](OC(=O)C(O)[C@@H](NC(=O)NC(C)(C)C)c4ccccc4)CC(O)([C@@H](OC(=O)c4ccccc4)[C@@H]12)C3(C)C (stereo partly specified)	1	4	0.72	46.8					
CC(=O)O[C@H]1C(=O)[C@]2(C)[C@@H](O)CC3OC[C@@]3(OC(C)=O)[C@H]2[C@H](OC(=O)c2ccccc2)C2(O)C[C@H](OC(=O)[C@H](O)[C@@H](NC(=O)SC(C)C)c3ccco3)C(C)=C1C2(C)C (stereo partly specified)	14.7	32.5	0.2	1.2					
CCCCSC(=O)N[C@@H](c1ccco1)[C@@H](O)C(=O)O[C@H]1CC2(O)[C@@H](OC(=O)c3ccccc3)[C@H]3[C@](C)(C(=O)[C@H](OC(C)=O)C(=C1C)C2(C)C)[C@@H](O)CC1OC[C@]13OC(C)=O (stereo partly specified)	0.17	0.3	0.2	21.3		139			
CC(=O)O[C@H]1C(=O)[C@]2(C)[C@@H](O)CC3OC[C@@]3(OC(C)=O)[C@H]2[C@H](OC(=O)c2ccccc2)C2(O)C[C@H](OC(=O)[C@H](O)[C@@H](NC(=O)SCC(C)C)c3ccco3)C(C)=C1C2(C)C (stereo partly specified)	0.28	0.7	0.2	7.7			145		
CC(=O)O[C@H]1C(=O)[C@]2(C)[C@@H](O)CC3OC[C@@]3(OC(C)=O)[C@H]2[C@H](OC(=O)c2ccccc2)C2(O)C[C@H](OC(=O)[C@H](O)[C@@H](/N=C(\S)NC(C)(C)C)c3ccco3)C(C)=C1C2(C)C (stereo partly specified)	4.9	11.3	1	40					
CC(=O)O[C@H]1C(=O)[C@]2(C)[C@@H](O)CC3OC[C@@]3(OC(C)=O)[C@H]2[C@H](OC(=O)c2ccccc2)C2(O)C[C@H](OC(=O)[C@H](O)[C@@H](NC(=O)SC(C)(C)C)c3ccccc3)C(C)=C1C2(C)C (stereo partly specified)	0.3	0.9	0.3	4.7					
CC(=O)O[C@H]1C(=O)[C@]2(C)[C@@H](O)CC3OC[C@@]3(OC(C)=O)[C@H]2[C@H](OC(=O)c2ccccc2)C2(O)C[C@H](OC(=O)[C@H](O)[C@@H](/N=C(\S)NC(C)(C)C)c3ccccc3)C(C)=C1C2(C)C (stereo partly specified)	~50	96.7	19	31					
CCCC/N=C(\S)N[C@@H](c1ccco1)[C@@H](O)C(=O)O[C@H]1CC2(O)[C@@H](OC(=O)c3ccccc3)[C@H]3[C@](C)(C(=O)[C@H](OC(C)=O)C(=C1C)C2(C)C)[C@@H](O)CC1OC[C@]13OC(C)=O (stereo partly specified)	4.6	10.5	1	252					
CC(=O)O[C@H]1C(=O)[C@]2(C)[C@@H](O)CC3OC[C@@]3(OC(C)=O)[C@H]2[C@H](OC(=O)c2ccccc2)C2(O)C[C@H](OC(=O)[C@H](O)[C@@H](NC(=O)OC(C)(C)C)c3ccccc3)C(C)=C1C2(C)C (stereo partly specified)	0.6	2.4	0.66	12				177	
CC(=O)O[C@H]1C(=O)[C@]2(C)[C@@H](O)CC3OC[C@@]3(OC(C)=O)[C@H]2[C@H](OC(=O)c2ccccc2)C2(O)C[C@H](OC(=O)[C@H](O)[C@@H](/N=C(\S)NCc3ccccc3)c3ccccc3)C(C)=C1C2(C)C (stereo partly specified)	>40	> 87	12						
CC(=O)O[C@H]1C(=O)[C@@]2(C)[C@H]([C@H](OC(=O)c3ccccc3)[C@]3(O)C[C@H](OC(=O)[C@H](O)[C@@H](NC(=O)c4ccccc4)c4ccccc4)C(C)=C1C3(C)C)[C@]1(OC(C)=O)CO[C@@H]1C[C@@H]2O [PACLITAXEL]									145
